Measured values from US9926369B2, “Methods for treating hepatocellular cancer by administering an anti-Ang-2 antibody” (Regeneron Pharmaceuticals, Inc., priority 2009, dated 2018).
pKd: −log10 of the molar value.

Key:
hBA2 = hBA2 (Homo sapiens, UniProt O15123); test: SPR binding to human bow-Ang-2 tetrameric construct (hBA2)
[1] = tested on: COLO 205 (Human Colorectal Adenocarcinoma Cell Line) tumors; test: COLO 205 mouse tumor model; format: in vivo, mice
Method: Briefly, 2×10^6COLO 205 cells in 100 μl of serum-free medium were injected subcutaneously into the flank of 6-8 week old male NCr nude mice (Taconic, Hudson, N.Y.). After tumor volumes reached an average of about 150 mm^3, mice were randomized into groups for treatment with antibody or Fc protein. Mice in each treatment group were administered an anti-Ang-2 antibody or Fc protein at a concentration of 4 mg/kg via intraperitoneal injection twice per week for approximately two weeks. Tumor volumes were measured twice per week over the course of the experiment and tumor weights were measured upon excision of tumors at the conclusion of the experiment. Averages (mean+/−standard deviation) of tumor weight and growth were calculated for each treatment group. “Avg. Tumor Growth” represents the average growth from the time of treatment initiation (when tumors were approximately 150 mm^3). Percent decrease of tumor weight and growth are calculated from comparison to Fc protein measurements.
A similar experiment was carried out to assess the effect of H1H685P, in particular, on COLO 205 tumor growth. Briefly, 2×10^6 COLO 205 cells in 100 μl of serum-free medium were implanted subcutaneously into the right hind flank of 9-11 week-old male SCID CB17 mice. When the tumors reached ˜125 mm^3, mice were randomized into 5 groups (n=7-8 mice/group) and treated twice per week with Fc protein (15 mg/kg), H1H685P (5 or 25 mg/kg) or Control II (5 or 25 mg/kg) for a period of 19 days. Tumor volumes were measured twice per week over the course of the experiment and tumor weights were measured upon excision of tumors at the end of the experiment. Averages of tumor weight and growth from the beginning of treatment were calculated for each group. Percent decrease of tumor weight and growth are calculated from comparison to the Fc control group.
To determine the effect of combining an anti-Ang-2 antibody with a VEGF inhibitor on the growth of COLO 205 xenografts, 2×10^6 cells were implanted subcutaneously into the right hind flank of 6-8 week-old female SCID mice. When the tumors reached an average volume of ˜350 mm^3, mice were randomized into 4 groups (n=6 mice/group) and treated with: human Fc protein (7.5 mg/kg), H1H685P (5 mg/kg), VEGF Trap (see U.S. Pat. No. 7,087,411) (2.5 mg/kg) or the combination of H1H685P+VEGF Trap. Mice were given a total of 3 doses over 10 days of treatment. Tumor volumes were measured twice per week over the course of the experiment. Averages of tumor growth from the start of treatment (mean+/−standard deviation) were calculated for each treatment group. Percent decrease of tumor growth was calculated from comparison to the Fc control group.
To test the effect of H1H685P in combination with a chemotherapeutic agent on tumor growth, 2.5×10^6 COLO 205 tumor cells were implanted subcutaneously into the right hind flank of 8-9 week-old male SCID mice. When the tumors reached an average volume of ˜150 mm^3 (day 17 after implantation), mice were randomized into 4 groups (n=5 mice/group) and treated as follows: the first group was treated sc with 15 mg/kg hFc and intraperitoneally (ip) with 5-FU vehicle; the second group was treated sc with 15 mg/kg of H1H685P; the third group was treated ip with 75 mg/kg of 5-FU; the fourth group was treated with the combination of 15 mg/kg H1H685P sc plus 75 mg/kg 5-FU ip. Mice received a total of three treatments, administered every 3-4 days. Tumor volumes were measured twice per week over the course of the experiment. Average (mean+/−standard deviation) tumor growth from the beginning of treatment until day 38 was calculated for each group. Percent decrease of tumor growth was calculated from comparison to the control group.

[2] = tested on: retinal superficial vasculature; test: Retinal vascularization in wild-type mice; format: in vivo; conditions: 12.5 mg/kg subcutaneous at P2, retina at P5
Method: In one set of experiments wild-type mice were used. In another set, mice expressing a human Ang-2 in place of the wild-type mouse Ang-2 (designated “hu-Ang-2 mice”) were used. The mice at two days of age (P2) were injected subcutaneously with either control Fc or with selected anti-Ang-2 antibodies at a dose of 12.5 mg/kg. Three days later (at P5), pups were euthanized, and eyeballs were enucleated and fixed in 4% PFA for 30 minutes. Retinas were dissected, stained with Griffonia simplicifolia lectin-1 for 3 hours or overnight at 4° C. to visualize the vasculature, and flat-mounted on microscope slides. Images were taken using a Nikon Eclipse 80i microscope camera and analyzed using Adobe Photoshop CS3, Fovea 4.0, and Scion 1.63 software.
Areas of the retina covered with superficial vasculature were measured and used as a readout of antibody activity. The reduction in the size of the vascular areas in mice treated with antibody compared to Fc-treated controls is presented in Table 34. The percent reduction in vascular area reflects the anti-angiogenic potency of the antibody. (N/D=not determined)

hAng-2FD-mFc F-469-L = target: T1, hAng-2FD-mFc F-469-L (Homo sapiens, UniProt O15123, F469L); test: Ang-2FD-mFc point mutant binding experiment (SPR), F-469-L; conditions: F-469-L mutant captured; antibody/peptibody at 100 nM; 25° C.
T1 construct: made in house
T1 sequence (O15123 with tags, fused parts or gaps F469L): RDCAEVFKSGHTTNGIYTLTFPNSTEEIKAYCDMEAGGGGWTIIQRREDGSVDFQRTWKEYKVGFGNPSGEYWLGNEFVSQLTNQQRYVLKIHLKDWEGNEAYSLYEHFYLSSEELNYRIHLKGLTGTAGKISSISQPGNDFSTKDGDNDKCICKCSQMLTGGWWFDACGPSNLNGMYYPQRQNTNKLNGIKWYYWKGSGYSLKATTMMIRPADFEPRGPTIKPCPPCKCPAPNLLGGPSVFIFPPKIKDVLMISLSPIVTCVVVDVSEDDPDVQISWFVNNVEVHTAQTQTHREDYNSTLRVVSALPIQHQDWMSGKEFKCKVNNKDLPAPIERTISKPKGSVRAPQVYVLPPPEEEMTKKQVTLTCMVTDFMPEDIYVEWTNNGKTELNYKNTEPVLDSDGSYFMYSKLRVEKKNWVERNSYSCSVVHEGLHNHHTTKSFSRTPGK
Description: To further characterize binding between hAng2 and anti-hAng2 mAbs of the invention, seven variant hAng2-FD-mFc proteins were generated, each containing a single point mutation. Amino acids selected for mutation were based on the difference in sequence between hAng-2 and hAng-1 in the region that interacts with hTie-2 (FIG. 1). In particular, amino acids within the fibrinogen-like domain (FD) of Ang-2 which are believed to interact with Tie-2 based on crystal structure analysis, but which differ from the corresponding amino acid in Ang-1, were individually mutated to the corresponding hAng-1 residue. The results of this example indicate the amino acid residues of hAng-2 with which the Ang-2 preferential binding antibodies interact.
In this experiment, each of the seven hAng-2FD-mFc mutant proteins were captured (˜147-283 RU) on an anti-mouse-Fc surface created through direct chemical coupling to a BIACORE™ chip. Then each Ang-2 antibody (or peptibody, as the case may be) at 100 nM was injected over the captured mFc-tagged hAng-2FD protein surface at a flowrate of 50 μl/min for 180 sec, and the dissociation of variant hAng2-FD-mFc and antibody was monitored in real time for 20 min at 25° C.

[3] = COLO 205, SCID CB17 mice, 5 mg/kg twice per week, 19 days
[4] = COLO 205, SCID CB17 mice, 25 mg/kg twice per week, 19 days
[5] = COLO 205, female SCID mice, H1H685P 5 mg/kg, VEGF Trap 2.5 mg/kg, 3 doses over 10 days
[6] = COLO 205, male SCID mice, H1H685P 15 mg/kg sc, 5-FU 75 mg/kg ip, three treatments, until day 38

Chain of hBA2 (O15123 with tags, fused parts or gaps): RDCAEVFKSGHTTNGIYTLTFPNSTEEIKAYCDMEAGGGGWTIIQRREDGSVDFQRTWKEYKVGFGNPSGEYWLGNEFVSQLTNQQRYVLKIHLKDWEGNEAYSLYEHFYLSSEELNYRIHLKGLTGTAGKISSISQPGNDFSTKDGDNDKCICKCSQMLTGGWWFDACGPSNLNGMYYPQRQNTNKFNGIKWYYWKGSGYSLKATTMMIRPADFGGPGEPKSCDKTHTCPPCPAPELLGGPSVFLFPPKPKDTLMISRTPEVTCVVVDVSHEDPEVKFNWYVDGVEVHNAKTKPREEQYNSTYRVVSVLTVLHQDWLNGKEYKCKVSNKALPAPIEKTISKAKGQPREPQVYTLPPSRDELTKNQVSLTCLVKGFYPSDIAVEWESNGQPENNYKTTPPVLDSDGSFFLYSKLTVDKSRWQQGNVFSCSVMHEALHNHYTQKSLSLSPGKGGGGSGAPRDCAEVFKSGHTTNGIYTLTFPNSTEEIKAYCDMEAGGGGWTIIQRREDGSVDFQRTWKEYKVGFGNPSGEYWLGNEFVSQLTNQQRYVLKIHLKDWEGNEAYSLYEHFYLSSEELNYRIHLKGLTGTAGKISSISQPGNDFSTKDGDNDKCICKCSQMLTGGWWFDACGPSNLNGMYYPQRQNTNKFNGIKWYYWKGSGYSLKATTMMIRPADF

## H1H685P: human anti-Ang-2 antibody, HCVR/LCVR SEQ ID NOs 18/20; also referred to as mAb1 [Antibody H1H685P]
hBA2
  pKd: 10.92
[1]; [3]
  % Decrease in Tumor Growth: 45%
  % Decrease in Tumor Weight: 43%
  Avg Tumor Growth: 370 ± 114 mm^3
  Avg Tumor Weight: 0.458 ± 0.125 g
[1]; [4]
  % Decrease in Tumor Growth: 56%
  % Decrease in Tumor Weight: 46%
  Avg Tumor Growth: 295 ± 160 mm^3
  Avg Tumor Weight: 0.430 ± 0.139 g
[1]; [5]
  % Decrease in Tumor Growth: 80%
  Avg Tumor Growth: 74 ± 77 mm^3
[1]; [6]
  % Decrease in Tumor Growth: 29%
  Avg Tumor Growth: 405 ± 80 mm^3
[1]; mouse, in vivo
  Anti-tumor activities in the COLO 205 mouse model (in words): substantial anti-tumor activities
[2]
  % Reduction in Vascular Area Relative to Fc Control, Wild-Type Mice: 39.7%
hAng-2FD-mFc F-469-L
  pKd: 7.86
  RU: 101.16 RU
